Experimental data: patent US6566371B2, “Intraperitoneal administration of adenosine for the treatment of prevention of gastrointestinal of systemic diseases” (University of Pittsburgh, priority 2000, dated 2003)
Read-outs that look alike come from different tables or passages of the source.

What was measured:
[1] = Microdialysis of mesenteric vein and aortic arch during continuous peritoneal lavage with adenosine or AMP (Example 2)
Procedure: (§1) In all the examples adult male Sprague-Dawley rats were purchased from Charles River Laboratories (Wilmington, Mass.) and maintained in the University of Pittsburgh Animal Facility (Pittsburgh, Pa.). Rats were provided free access to Prolab Isopro RMH 3000 rodent diet (PMI Nutrition Intl., Richmond, Ind.) and tap water. Light cycle, relative humidity and room temperature were 7:00 AM to 7:00 PM, 55% and 22° C., respectively. Animals weighed 357±11 (mean±SEM) grams at the time of study.
(§2) Rats (n=5) were anesthetized and body temperature monitored and maintained as described for Example 1. The trachea was cannulated with PE-240 and a PE-50 catheter was inserted into the right jugular vein and an intravenous infusion of 0.9% saline was initiated at 50 μl/min. A femoral artery catheter (PE-50) was inserted and was connected to a digital blood pressure analyzer for continuous measurement of MABP and heart rate. Next, microdialysis probes (CMA/20 microdialysis probe 4 mm, Bioanalytical Systems, Inc., West Lafayette, Ind.) were inserted into the aortic arch (via the left carotid artery) and mesenteric vein. Microdialysis probes were perfused with 0.9% saline at 2 μl/min, and the dialysate exiting the probes was collected in a freezing apparatus. As in Example 1, a basin was constructed from the abdominal wall to create a bowl containing the viscera. However, unlike Example 1, instead of intermittent lavage with fresh solutions, the abdominal basin was continuously perfused with Tyrode's solution (5 ml/min) (Mi, Z., et al., J. Pharmacol. Exp. Ther. 287:926 (1998), the disclosure of which is incorporated herein by reference) that was maintained at 37° C. by a heated water bath. Thus, the viscera were submerged completely in Tyrode's solution that was constantly being replaced. After a 20-minute stabilization period, dialysate from the microdialysis probes was collected for 20 minutes. Next, the Tyrode's solution perfusing the peritoneal cavity was switched to prewarmed Tyrode's containing 10^−5 M adenosine (Sigma). After 10 minutes, the dialysate was collected for another 20 minutes. This procedure was repeated two more times as the concentration of adenosine was increased to 10^−4 M and finally to 10^−3 M. To determine whether AMP would behave as a “prodrug” for the delivery of adenosine, after a 20 minute washout period, the entire protocol was repeated with AMP (10^−5 M, 10^−4 M and 10^−3 M) (Sigma).
(§3) Statistical Analysis: Data were analyzed in this example by repeated measures 1-factor analysis of variance. […] Statistical analyses were conducted with NCSS software (Version 6.0; Kaysville, Utah), and the criterion of significance was p<0.05.
(§4) Sample Analysis: Levels of adenosine and its metabolites, inosine, hypoxanthine and xanthine, in the dialysate samples in this example were measured using an Isco (Lincoln, Nebr.) high-pressure liquid chromatographic system (pump model 2350, gradient programmer model 2360, 4.6×250-mm C18 column) with UV detection as described by Mi, Z., et al., J. Pharmacol. Exp. Ther. 273:728 (1995). The chromatography data system was JCL 6000 for Windows (Jones Chromatography LTD., Lakewood, Colo.).

[2] = system: rats subjected to hemorrhagic shock; test: Hemorrhagic shock and resuscitation with continuous peritoneal lavage (Example 3); assay type: in vivo, Sprague-Dawley rats
Procedure: The methods of the present invention are illustrated in more detail below. […] In a second study, microdialysis probes were placed in the mesenteric vein and aortic arch of rats, and the peritoneal cavity was continuously ravaged with adenosine or AMP solutions. In a third study, rats were subjected to hemorrhagic shock (2.75 ml of blood removed per 100 grams of body weight over a 15 minute period) for two hours, followed by volume resuscitation for one hour and observation for 72 hours. Rats received peritoneal lavage with adenosine or vehicle (0.9% saline) beginning 20 minutes after blood withdrawal and continuing through the one hour resuscitation period.
Hemorrhagic shock was induced by removing 2.75 ml of blood per 100 grams of body weight over a 15 minute period. Two hours after blood withdrawal, the animals were resuscitated by reinfusing the withdrawn blood and restoring and maintaining a normal blood pressure for one hour by infusing Ringer's solution (Baxter, Deerfield, Ill.) as needed. Beginning 20 minutes after blood withdrawal and continuing for one hour after reinfusion of the withdrawn blood, rats received either continuous peritoneal lavage with adenosine (10^−4 M) or 0.90% saline.

[3] = rat, in vivo
Procedure: as §1, §2, §3, §4

[4] = system: anesthetized rats with mesenteric vasoconstriction induced by angiotensin II plus methoxamine; test: Intraperitoneal lavage with adenosine during intramesenteric artery infusion of angiotensin II plus methoxamine (Example 1); assay type: in vivo, Sprague-Dawley rats
[5] = continuous peritoneal lavage with 10^-3 M
[6] = continuous peritoneal lavage with adenosine 10^-4 M
[7] = Group 2, period 7, 10^-3 M adenosine in peritoneal lavage fluid

With Nc1ncnc2c1ncn2[C@@H]1O[C@H](COP(=O)(O)O)[C@@H](O)[C@H]1O [AMP, adenosine-5′-monophosphate] the “purine levels in the aorta” value [1, 5] was “not in the aorta”, the “purine levels in the mesenteric vein” value [1, 5] was “increased purine levels in the mesenteric vein” and the MABP ([1]; during 10^-3 M in continuous peritoneal lavage, basal 113±5 (adenosine), 112±4 (AMP), not significantly affected) was 117±7 mm Hg. It also gave a heart rate ([1]; during 10^-3 M in continuous peritoneal lavage, basal 351±15 (adenosine), 357±17 (AMP), not significantly affected) of 366±22 beats/min.

In the case of Nc1ncnc2c1ncn2[C@@H]1O[C@H](CO)[C@@H](O)[C@H]1O [adenosine], the “arterial pH vs vehicle-treated group” value [2, 6] is reported as “significantly (p<0.05) higher”, the “blood urea nitrogen vs vehicle-treated group” value [2, 6] is reported as “significantly (p<0.05) lower” and the “plasma level of lactate vs vehicle-treated group” value [2, 6] is reported as “significantly (p<0.05) lower”. For the same compound, the “plasma level of potassium vs vehicle-treated group” value [2, 6] was “significantly (p<0.05) lower”, the “survival to 72 hours” value ([2]; continuous peritoneal lavage with adenosine 10^-4 M, vehicle 4 of 10, p<0.05) was 9 of 10 and the “MABP and heart rate vs vehicle-treated group” value ([2]; during hemorrhagic shock and resuscitation, adenosine 10^-4 M lavage) was “similar”. The “adenosine level in dialysate exiting mesenteric vein microdialysis catheter” value ([3]; male, Sprague-Dawley) was 2.17 ± 0.60 µM, the “hypoxanthine level in dialysate exiting mesenteric vein microdialysis catheter” value ([3]; male, Sprague-Dawley) was 0.18 ± 0.04 µM and the “inosine level in dialysate exiting mesenteric vein microdialysis catheter” value ([3]; male, Sprague-Dawley) was 1.03 ± 0.32 µM. The “xanthine level in dialysate exiting mesenteric vein microdialysis catheter” value ([3]; male, Sprague-Dawley) was 0.26 ± 0.06 µM, the MABP [3] was 108±4 mm Hg and the heart rate [3] was 362±14 beats/min. The “levels of adenosine, inosine, hypoxanthine or xanthine in the aorta (dialysate)” value [3] was “did not significantly alter”, the “levels of adenosine, inosine, hypoxanthine or xanthine in the mesenteric vein (dialysate)” value [3] was “did not significantly alter” and the heart rate ([4]; Group 2, increasing adenosine 10^-7 to 10^-3 M in lavage) was “not significantly different among the seven experimental periods”. For the same compound, the “MBF compared with period 1 (no infusion, no adenosine)” value [4, 7] was “not significantly different than the MBF during period 1”, the “MBF compared with period 2 (vasoconstrictors, no adenosine)” value [4, 7] was “significantly greater than the MBF during period 2” and the “mesenteric blood flow (MBF)” value ([4]; Group 2, periods 3-6, adenosine 10^-7 M to 10^-4 M in peritoneal lavage fluid, intermittent lavage) was “remained significantly depressed”. The “heart rate (bradycardia)” value ([4]; Group 3, 10^-3 M adenosine in peritoneal lavage fluid) was “did not cause bradycardia”, the MABP ([4]; Group 3, 10^-3 M adenosine, period 4 and period 5) was “very slight and transient increase” and the “MBF compared with period 1” value ([4]; Group 3, by period 7, fixed 10^-3 M adenosine in peritoneal lavage fluid) was “no longer significantly different compared with experimental period 1”. The “MBF compared with period 2” value ([4]; Group 3, periods 3-7, fixed 10^-3 M adenosine in peritoneal lavage fluid) was “significantly greater than MBF during period 2” and the “mesenteric blood flow (summary)” value ([4]; peritoneal lavage with adenosine, p<0.05) was “normalized mesenteric blood flow”.
